Assays:
[1] = test system: SKBR3 (PIK3CA WT) cells, pSer473 AKT; assay: pS473 AKT assay in SKBR3 cells; type: cell-based; conditions: Homo sapiens, SK-BR-3, treated 2 h, read-out: SKBR3_IC50
Experimental: (§1) SKBR3 (PIK3CA WT), MCF7 (PIK3CA E545K), and T47D (PIK3CA H1047R) cells were cultured using 10-cm petri dishes with recommended medium. One day before the assay, cells were seeded in 96-well plates. After overnight incubation, cells were treated with different concentrations of PI3Kα inhibitors for 2 h. Cells were then fixed using 4% paraformaldehyde at room temperature for 20 min. Cells were aspirated with 4% paraformaldehyde, and washed using 1× regular phosphate buffered saline 3 times, 5 min each. Any residual phosphate buffered saline was aspirated and cells were blocked using 10% goat serum containing 1% bovine serum albumin and 0.3% Triton X-100 at room temperature for 1 h. Without any additional washing, primary antibodies (rabbit anti-pSer473 AKT) were diluted using blocking buffer and added at a final volume of 50 microliter per well. Assay plates with primary antibodies were maintained overnight at 4° C. Cells were washed using 1× regular phosphate buffered saline 3 times, 5 min each. After the final wash, cells were incubated with horseradish peroxidase-conjugated secondary antibodies (goat Anti-rabbit IgG) and diluted using the same blocking buffer at room temperature for 1 h. Cells were then washed thoroughly using 1× regular phosphate buffered saline 3 times, 5 min each, and any residual phosphate buffered saline was aspirated. Super-Signal ELISA Pico Chemiluminescent Substrate was then added at a final volume of 100 microliter per well. Plates were read on a i3x Multi-Mode Microplate Reader and IC50 values calculated using GraphPad Prism software.
(§2) Results of the assay described above are presented in Table A. “++++” indicates an IC50 less than 1000 nM; “+++” indicates an IC50 greater than or equal to 1000 nM but less than 5000 nM; “++” indicates an IC50 greater than or equal to 5000 nM but less than 10000 nM; and “+” indicates an IC50 greater than or equal to 10000 nM.

[2] = test system: T47D (PIK3CA H1047R) cells, pSer473 AKT; assay: pS473 AKT assay in T47D cells; type: cell-based; conditions: Homo sapiens, treated 2 h, read-out: T47D_IC50
Experimental: as §1, §2

| IC50 [1] [nM] | IC50 [2] [nM] | Compound |
| --- | --- | --- |
| 1000 to 5000 | < 1000 | Cn1nc(N)c2c(Oc3cc(F)ccc3Cl)c(NC(=O)c3cc(F)cc(C(F)(F)F)c3)cc(C#CC3(C)COC3)c21 [Example 46, N-(3-Amino-4-(2-chloro-5-fluorophenoxy)-1-methyl-7-((3-methyloxetan-3-yl)ethynyl)-1H-indazol-5-yl)-3-fluoro-5-(trifluoromethyl)benzamide] |
| 1000 to 5000 | < 1000 | C#Cc1cc(NC(=O)c2cc(F)cc(C(F)(F)F)c2)c(Oc2cc(F)ccc2Cl)c2c(N)nn(C)c12 [Example 47, N-(3-Amino-4-(2-chloro-5-fluorophenoxy)-7-ethynyl-1-methyl-1H-indazol-5-yl)-3-fluoro-5-(trifluoromethyl)benzamide] |
| 1000 to 5000 | < 1000 | Cn1ccc(C#Cc2cc(NC(=O)c3cc(F)cc(C(F)(F)F)c3)c(Oc3cc(F)ccc3Cl)c3c(N)nn(C)c23)n1 [Example 48, N-(3-Amino-4-(2-chloro-5-fluorophenoxy)-1-methyl-7-((1-methyl-1H-pyrazol-3-yl)ethynyl)-1H-indazol-5-yl)-3-fluoro-5-(trifluoromethyl)benzamide] |
| < 1000 | < 1000 | Cn1nc(N)c2c(Oc3cc(F)ccc3Cl)c(NC(=O)c3cc(F)cc(C(F)(F)F)c3)cc(C#CCO)c21 [Example 49, N-(3-Amino-4-(2-chloro-5-fluorophenoxy)-7-(3-hydroxyprop-1-yn-1-yl)-1-methyl-1H-indazol-5-yl)-3-fluoro-5-(trifluoromethyl)benzamide] |
| 5000 to 10000 | < 1000 | Cn1cnc(C#Cc2cc(NC(=O)c3cc(F)cc(C(F)(F)F)c3)c(Oc3cc(F)ccc3Cl)c3c(N)nn(C)c23)c1 [Example 50, N-(3-Amino-4-(2-chloro-5-fluorophenoxy)-1-methyl-7-((1-methyl-1H-imidazol-4-yl)ethynyl)-1H-indazol-5-yl)-3-fluoro-5-(trifluoromethyl)benzamide] |
| ≥ 10000 | < 1000 | CN1CCC(C#Cc2cc(NC(=O)c3cc(F)cc(C(F)(F)F)c3)c(Oc3cc(F)ccc3Cl)c3c(N)nn(C)c23)CC1 [Example 51, N-(3-Amino-4-(2-chloro-5-fluorophenoxy)-1-methyl-7-((1-methylpiperidin-4-yl)ethynyl)-1H-indazol-5-yl)-3-fluoro-5-(trifluoromethyl)benzamide] |
| 1000 to 5000 | < 1000 | CC(=O)N1CCC(C#Cc2cc(NC(=O)c3cc(F)cc(C(F)(F)F)c3)c(Oc3cc(F)ccc3Cl)c3c(N)nn(C)c23)CC1 [Example 52, N-(7-((1-Acetylpiperidin-4-yl)ethynyl)-3-amino-4-(2-chloro-5-fluorophenoxy)-1-methyl-1H-indazol-5-yl)-3-fluoro-5-(trifluoromethyl)benzamide] |
| ≥ 10000 | < 1000 | CNc1nn(C)c2c(Cl)cc(NC(=O)c3cc(F)cc(C(F)(F)F)c3)c(Oc3cc(F)ccc3Cl)c12 [Example 53, N-(7-chloro-4-(2-chloro-5-fluorophenoxy)-1-methyl-3-(methylamino)-1H-indazol-5-yl)-3-fluoro-5-(trifluoromethyl)benzamide] |
| ≥ 10000 | ≥ 10000 | CN(C)c1nn(C)c2c(Cl)cc(NC(=O)c3cc(F)cc(C(F)(F)F)c3)c(Oc3cc(F)ccc3Cl)c12 [Example 54, N-(7-chloro-4-(2-chloro-5-fluorophenoxy)-3-(dimethylamino)-1-methyl-1H-indazol-5-yl)-3-fluoro-5-(trifluoromethyl)benzamide] |
| 1000 to 5000 | < 1000 | Cn1nc(N)c2c(Oc3cc(F)ccc3Cl)c(NC(=O)c3cc(F)cc(C(F)(F)F)c3)cc(N3CCn4ncnc4C3)c21 [Example 55, N-(3-Amino-4-(2-chloro-5-fluorophenoxy)-7-(5,6-dihydro-[1,2,4]triazolo[1,5-a]pyrazin-7(8H)-yl)-1-methyl-1H-indazol-5-yl)-3-fluoro-5-(trifluoromethyl)benzamide] |
| 1000 to 5000 | < 1000 | Nc1nn(CCN2CCC2)c2c(Cl)cc(NC(=O)c3cc(F)cc(C(F)(F)F)c3)c(Oc3cc(F)ccc3Cl)c12 [Example 56, N-(3-Amino-1-(2-(azetidin-1-yl)ethyl)-7-chloro-4-(2-chloro-5-fluorophenoxy)-1H-indazol-5-yl)-3-fluoro-5-(trifluoromethyl)benzamide] |
| < 1000 | < 1000 | Cn1nc(N)c2c(Oc3cc(F)ccc3Cl)c(NC(=O)c3cc(F)cc(C(F)(F)F)c3)cc(/C=C/C#N)c21 [Example 57, (E)-N-(3-amino-4-(2-chloro-5-fluorophenoxy)-7-(2-cyanovinyl)-1-methyl-1H-indazol-5-yl)-3-fluoro-5-(trifluoromethyl)benzamide] |
| < 1000 | < 1000 | Cn1nc(N)c2c(Oc3cc(F)ccc3Cl)c(NC(=O)c3cc(F)cc(C(F)(F)F)c3)cc(/C=C\C#N)c21 [Example 58, (Z)—N-(3-amino-4-(2-chloro-5-fluorophenoxy)-7-(2-cyanovinyl)-1-methyl-1H-indazol-5-yl)-3-fluoro-5-(trifluoromethyl)benzamide] |
| < 1000 | < 1000 | Cn1nc(N)c2c(Oc3cc(F)ccc3Cl)c(NC(=O)c3cc(F)cc(C(F)(F)F)c3)cc(CCC#N)c21 [Example 59, N-(3-Amino-4-(2-chloro-5-fluorophenoxy)-7-(2-cyanoethyl)-1-methyl-1H-indazol-5-yl)-3-fluoro-5-(trifluoromethyl)benzamide] |
| < 1000 | < 1000 | Cn1nc(N)c2c(Oc3cc(F)ccc3Cl)c(NC(=O)c3cc(F)cc(Cl)c3)cc(Cl)c21 [Example 60, N-(3-Amino-7-chloro-4-(2-chloro-5-fluorophenoxy)-1-methyl-1H-indazol-5-yl)-3-chloro-5-fluorobenzamide] |
| 5000 to 10000 | < 1000 | Cn1nc(N)c2c(Oc3cc(F)ccc3Cl)c(NC(=O)c3cccc(C(F)(F)F)c3)cc(Cl)c21 [Example 61, N-(3-Amino-7-chloro-4-(2-chloro-5-fluorophenoxy)-1-methyl-1H-indazol-5-yl)-3-(trifluoromethyl)benzamide] |
| 1000 to 5000 | < 1000 | Cn1nc(N)c2c(Oc3cc(F)ccc3Cl)c(NC(=O)c3cncc(C(F)(F)F)c3)cc(Cl)c21 [Example 62, N-(3-Amino-7-chloro-4-(2-chloro-5-fluorophenoxy)-1-methyl-1H-indazol-5-yl)-5-(trifluoromethyl)nicotinamide] |
| 1000 to 5000 | < 1000 | Cn1nc(N)c2c(Oc3cc(F)ccc3Cl)c(NC(=O)c3csc4ccccc34)cc(Cl)c21 [Example 63, N-(3-Amino-7-chloro-4-(2-chloro-5-fluorophenoxy)-1-methyl-1H-indazol-5-yl)benzo[b]thiophene-3-carboxamide] |
| 1000 to 5000 | < 1000 | Cn1nc(N)c2c(Oc3cc(F)ccc3Cl)c(NC(=O)N3CCc4ccccc43)cc(Cl)c21 [Example 64, N-(3-Amino-7-chloro-4-(2-chloro-5-fluorophenoxy)-1-methyl-1H-indazol-5-yl)indoline-1-carboxamide] |
| < 1000 | < 1000 | CCNC(=O)c1cc(NC(=O)c2cc(F)cc(C(F)(F)F)c2)c(Oc2cc(F)ccc2Cl)c2c(N)nn(C)c12 [Example 65, 3-Amino-4-(2-chloro-5-fluorophenoxy)-N-ethyl-5-(3-fluoro-5-(trifluoromethyl)benzamido)-1-methyl-1H-indazole-7-carboxamide] |
| < 1000 | < 1000 | Cn1nc(N)c2c(Oc3cc(F)ccc3Cl)c(NC(=O)c3cc(F)cc(C(F)(F)F)c3)cc(CCO)c21 [Example 66, N-(3-Amino-4-(2-chloro-5-fluorophenoxy)-7-(2-hydroxyethyl)-1-methyl-1H-indazol-5-yl)-3-fluoro-5-(trifluoromethyl)benzamide] |
| 1000 to 5000 | < 1000 | Nc1nn(CCO)c2c(C#Cc3ccccn3)cc(NC(=O)c3cc(F)cc(C(F)(F)F)c3)c(Oc3cc(F)ccc3Cl)c12 [Example 67, N-(3-Amino-4-(2-chloro-5-fluorophenoxy)-1-(2-hydroxyethyl)-7-(pyridin-2-ylethynyl)-1H-indazol-5-yl)-3-fluoro-5-(trifluoromethyl)benzamide] |
| < 1000 | < 1000 | Nc1nn2c3c(cc(NC(=O)c4cc(F)cc(C(F)(F)F)c4)c(Oc4cc(F)ccc4Cl)c13)CNC2=O [Example 68, N-(2-Amino-3-(2-chloro-5-fluorophenoxy)-8-oxo-7,8-dihydro-6H-pyrazolo[4,5,1-ij]quinazolin-4-yl)-3-fluoro-5-(trifluoromethyl)benzamide] |
| < 1000 | < 1000 | CN1Cc2cc(NC(=O)c3cc(F)cc(C(F)(F)F)c3)c(Oc3cc(F)ccc3Cl)c3c(N)nn(c23)C1=O [Example 69, N-(2-Amino-3-(2-chloro-5-fluorophenoxy)-7-methyl-8-oxo-7,8-dihydro-6H-pyrazolo[4,5,1-ij]quinazolin-4-yl)-3-fluoro-5-(trifluoromethyl)benzamide] |

From patent publication US20260250251A1, “HETEROCYCLIC COMPOUNDS AS PI3Ka INHIBITORS” (Pikavation Therapeutics, Inc., priority 2022, published 2026)
